We go through 2 compounds from publication PMC3549563 (Journal of Neurochemistry, 2012).

The target in this experiment is T1, ACR-16 (Caenorhabditis elegans, UniProt P48180).
T1 sequence (P48180 20-498): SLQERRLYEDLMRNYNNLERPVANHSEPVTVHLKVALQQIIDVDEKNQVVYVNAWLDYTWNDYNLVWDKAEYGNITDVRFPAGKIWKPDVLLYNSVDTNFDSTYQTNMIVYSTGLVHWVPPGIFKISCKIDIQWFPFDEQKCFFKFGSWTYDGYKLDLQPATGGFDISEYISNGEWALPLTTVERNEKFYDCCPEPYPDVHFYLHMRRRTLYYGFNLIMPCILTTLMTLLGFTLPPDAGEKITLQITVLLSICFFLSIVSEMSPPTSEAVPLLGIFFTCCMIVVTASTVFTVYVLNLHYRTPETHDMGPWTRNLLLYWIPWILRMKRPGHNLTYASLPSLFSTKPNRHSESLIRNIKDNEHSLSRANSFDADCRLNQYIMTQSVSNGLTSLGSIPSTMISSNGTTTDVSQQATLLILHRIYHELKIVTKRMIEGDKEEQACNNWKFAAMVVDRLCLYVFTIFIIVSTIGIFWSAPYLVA
Description: two-electrode voltage clamp, Xenopus oocytes, peak current. Format: cell-based.

Compound `CC(=O)OCC[N+](C)(C)C` [acetylcholine] displayed a half-maximal effective concentration (EC50) of 24 µM.
With `CN1CCC[C@H]1c1cccnc1` [nicotine], the EC50 is 22 µM. The EC50 values of the last two compounds are within 1.5-fold of each other.
